Measured values: patent US11891640B1, “Crop protection in algae by exogenous terpene expression” (priority 2021, dated 2024)

Tested on: Brachionus plicatilis (rotifers)
Test: Cultivation assay of N. oceanica in the presence of rotifers (culture stability against predation)
Format: in vivo
Conditions: rotifer concentrations between 10-50/mL
Description: FIGS. 3A-3B show culture stability in the presence of predation by rotifers. Provided are graphs showing (A) a culture including wild type Nannochloropsis oceanica (N. oceanica) exposed to increasing Brachionus plicatilis (rotifers) concentrations and (B) a transformed culture including N. oceanica strain 24N having a […]-322581 (Hypoxylon sp. CI-4A, sesquiterpene synthase) gene. Cultivation assays of N. oceanica in the presence of rotifers, which are common algae grazers and culture-crash inducing agents, indicate up to 50% increased survival of the sesquiterpene producing cultures over controls, indicating potential for algae crop-protection applications. Additional details follow. FIGS. 3A-3B show culture stability against predation.

C=C(C)[C@@H]1CC=C2CCC[C@@H](C)[C@]2(C)C1 [aristolochene]
predation resistance: significantly increased predation resistance
